Laboratory results reported in US3931197A, “Substituted piperidine derivatives” (Richardson-Merrell Inc., priority 1974, dated 1976).

The compounds below were run on wheals induced by intradermal injections of 1γ of histamine (assay: reduction by 50% of wheals induced by intradermal injections of histamine in guinea pigs). Conditions: Cavia porcellus, po, 1 h, orally administered one hour prior to intradermal injection of 1γ histamine, read-out: ED50 (amount of compound required to reduce by 50% wheals induced by intradermal injections of histamine).
Assay type: in vivo
Description: To illustrate the utility of the compounds of this invention the following tabulation indicates the amount of certain representative compounds of this invention required to reduce by 50% wheals induced by intradermal injections of 1γ of histamine into guinea pigs. Each compound was orally administered one hour prior to the histamine injection.
`Cl.O=C(CCCN1CCC(C(O)(c2ccccc2)c2ccccc2)CC1)c1ccc(C2CCCC2)cc1` [4'-Cyclopentyl-4-[4-(α-hydroxy-α-phenylbenzyl)piperidino]-butyrophenone hydrochloride] showed an ED50 of 2.5 mg/kg.
Work on `Cc1ccc(C(=C2CCN(CCCC(=O)c3ccc(C(C)(C)C)cc3)CC2)c2ccccc2)cc1.Cl` [4'-tert-Butyl-4-[4-[α-(p-tolyl)benzylidene]piperidino]-butyrophenone hydrochloride] yielded an ED50 of about 10 mg/kg.
For `CC(C)(C)c1ccc(C(=O)CCCN2CCC(C(O)(c3ccccc3)c3ccc(Cl)cc3)CC2)cc1.Cl` (stereo not drawn) [4'-tert-Butyl-4-[4-[α-hydroxy-α-(p-chlorophenyl)benzyl]-piperidino]butyrophenone hydrochloride], the ED50 was 27 mg/kg.
Compound `Cc1ccc(C(O)(c2ccccc2)C2CCN(CCCC(=O)c3ccc(C(C)(C)C)cc3)CC2)cc1.Cl` (stereo not drawn) [4'-tert-Butyl-4-[4-[α-hydroxy-α-(p-tolyl)benzyl]piperidino]-butyrophenone hydrochloride] has an ED50 of 6 mg/kg.
Compound `Cl.O=C(CCCN1CCC(C(O)(c2ccccc2)c2ccccc2)CC1)c1ccc2ccccc2c1` [4-[4-(α-Hydroxy-α-phenylbenzyl)piperidino]-1-(2-naphthyl)-butan-1-one hydrochloride] has an ED50 of 3.6 mg/kg.
`CC(C)(C)Cc1ccc(C(=O)CCCN2CCC(C(O)(c3ccccc3)c3ccccc3)CC2)cc1.Cl` [4-[4-(α-Hydroxy-α-phenylbenzyl)piperidino]-4'-neopentyl-butyrophenone hydrochloride] gave an ED50 of 0.5 mg/kg.
